Laboratory results: PMC5655044, “Reducing Antibacterial Development Risk for GSK1322322 by Exploring Potential Human Dose Regimens in Nonclinical Efficacy Studies Using Immunocompetent Rats” (Antimicrobial Agents and Chemotherapy, 2017)
In brackets after ≈: the same amount, converted by molar mass. Several values for one entry are separate records, joined by “and”; a condition that tells them apart may be missing. Identical values can stand only once. Like-named read-outs stand apart in the source and are kept apart here.

Columns and labels:
S. aureus [1] = test: MIC by CLSI broth microdilution, S. aureus isolates; type: cell-based, Staphylococcus aureus; design: key to Susceptibility category (superscript to MIC): R, resistant; S, susceptible; NS, nonsusceptible (resistance not defined); details: for MIC: Staphylococcus aureus
Description: (§1) The strains chosen for these studies were clinical isolates from the GSK collection. They were selected on the basis of their desired susceptibility to GSK1322322, resistance phenotype, proven ability to produce robust infections in the rat infection models used in the present study, and previous validation in the models using positive- and negative-control antimicrobials (data on file). MICs were determined using the Clinical and Laboratory Standards Institute-recommended standards for broth microdilution ([24]) and are shown in Table 2. The MIC assay was repeated multiple times for each isolate, and results were consistent (within an accepted variation of ±1 dilution) across assays.

H. influenzae [2] = test: Rat model of H. influenzae pneumonia with recreated human exposure profiles; type: in vivo; details: for Log10 reductions versus the levels at the baseline: 96 h
Description: (§2) The respiratory tract infection model was performed as previously described by Hoover et al. with slight modifications ([25]). Briefly, rats were anesthetized with a cocktail containing ketamine hydrochloride (Ketaset; 40 mg/kg) and xylazine (Rompun; 5 mg/kg) via intramuscular injection of 150 μl. The infection was induced by instilling 200 μl of the bacterial suspension in cooled, molten nutrient agar directly into the left lung via nonsurgical intratracheal intubation. As described in detail by Hoover et al., the use of agar for the inoculum boosts the ability of these organisms to establish infection in immunocompetent animals ([25]). The final inoculum ranged from 5.7 to 6.2 log10 CFU/rat for S. pneumoniae and 6.2 to 7.5 log10 CFU/rat for H. influenzae.
(§3) Solutions were freshly prepared each day.
(§4) One set of rats was euthanized at 1 h postinfection to establish the baseline bacterial burden at the time that dosing was initiated. All remaining animals were euthanized at 96 h postinfection. Euthanasia was achieved by carbon dioxide overdose, and infected tissues were excised aseptically and homogenized in 1 ml PBS using a laboratory blender (Stomacher 80; Seward Ltd., Worthing, West Sussex, UK). The lungs were removed whole and blotted to remove excess blood prior to processing. Abscesses were excised intact by removing all surrounding skin and tissue to ensure collection of the entire infected area along with the complete abscess itself. For enumeration of viable bacterial numbers, 10-fold serial dilutions were prepared in PBS and triplicate samples of 20 μl each were inoculated onto Trypticase soy agar supplemented with 5% sheep's blood (S. pneumoniae and S. aureus) or chocolate agar (H. influenzae) by a modified Miles-Misra technique ([27], [28]), using a Hamilton Microlab AT 2 Plus system. The colonies were counted following overnight incubation at 37°C, and the limit of detection was ≤1.7 log10 CFU/tissue.
(§5) The outcome measure for efficacy was the number of bacteria isolated from the infected tissues (number of log10 CFU per lungs or number of log10 CFU per abscess) at the conclusion of the study. Results are presented either as group means or as the change in the number of CFU from that at the baseline with associated standard errors of the means (SEM) for the difference. Statistical analysis was performed using the Student t test with a significance level of 0.05.

S. aureus [3] = test: Rat model of S. aureus abscess with recreated human exposure profiles; type: in vivo; details: recreated AZM 1,000/500-mg profile, all three (macrolide-resistant) S. aureus isolates
Description: Rats were also anesthetized as described above for establishment of the abscess infection model. A subcutaneous groin abscess was created by injecting 1 ml of the bacterial suspension in semisolid nutrient agar subcutaneously into the loose skin of the right groin area. The final inoculum for the S. aureus strains utilized ranged from 6.4 to 7.2 log10 CFU/rat.
as §3
as §4, with “For enumeration of viable bacterial numbers, 10-fold serial dilutions were prepared in PBS and triplicate samples of 20 μl each were inoculated onto Trypticase soy agar supplemented with 5% sheep's blood (S. pneumoniae and S. aureus) or chocolate agar (H. influenzae) by a modified Miles-Misra technique ([27], [28]), using a Hamilton Microlab AT 2 Plus system.” left out, “CFU/tissue. […]” for “CFU/tissue.”

[4] = cited from earlier work; for AUC0–t Human / Cmax Human: estimated from published oral PK data; for AUC from 0 to 12 h postdosing: human
S. pneumoniae [5] = test: MIC by CLSI broth microdilution, S. pneumoniae isolates; type: cell-based, Streptococcus pneumoniae; design: key to Susceptibility category (superscript to MIC): R, resistant; S, susceptible; NS, nonsusceptible (resistance not defined); details: for MIC: Streptococcus pneumoniae
Description: as §1

H. influenzae [6] = test: MIC by CLSI broth microdilution, H. influenzae isolates; type: cell-based, Haemophilus influenzae; design: key to Susceptibility category (superscript to MIC): R, resistant; S, susceptible; NS, nonsusceptible (resistance not defined); details: for MIC: Haemophilus influenzae
Description: as §1

S. pneumoniae [7] = test: Rat model of S. pneumoniae pneumonia with recreated human exposure profiles; type: in vivo; details: for Reduction in bacterial burden compared with controls at baseline: LVX- and AZM-resistant S. pneumoniae isolate, recreated human profiles (LVX 500 mg, AZM 1,000/500 mg once daily)
Description: as §2, §3, §4, §5

[8] = Blood versus plasma concentrations, rat; type: in vitro ADME; details: rat (data on file)
[9] = Blood versus plasma concentrations, human; type: in vitro ADME; details: human (data on file)
[10] = design: method as in PMID 24189245; details: healthy volunteers; cited from earlier work
[11] = Epithelial lining fluid penetration in infected rats; type: in vivo; details: rat, epithelial lining fluid (total drug) / plasma (free drug); infected rats (data on file); read-out: Ratio of the total drug epithelial lining fluid AUC to the free drug plasma AUC
[12] = susceptible S. pneumoniae strain, recreated human profiles, bacterial numbers reduced to below or close to the limit of detection

SMILES	Susceptibility category (superscript to MIC) (S. aureus [1]; S. aureus A-24)	Susceptibility category (superscript to MIC) (S. aureus [1]; S. aureus PVL-2)	Susceptibility category (superscript to MIC) (S. aureus [1]; S. aureus X32601)	MIC (S. aureus [1]; S. aureus A-24)	MIC (S. aureus [1]; S. aureus PVL-2)	MIC (S. aureus [1]; S. aureus X32601)	Susceptibility category (superscript to MIC) (S. pneumoniae [5]; S. pneumoniae ERY2)	Susceptibility category (superscript to MIC) (S. pneumoniae [5]; S. pneumoniae L11259)	Susceptibility category (superscript to MIC) (S. pneumoniae [5]; S. pneumoniae TPS3)	MIC (S. pneumoniae [5]; S. pneumoniae ERY2)	MIC (S. pneumoniae [5]; S. pneumoniae L11259)	MIC (S. pneumoniae [5]; S. pneumoniae TPS3)	Susceptibility category (superscript to MIC) (H. influenzae [6]; H. influenzae 511343)	Susceptibility category (superscript to MIC) (H. influenzae [6]; H. influenzae 1302002H)	Susceptibility category (superscript to MIC) (H. influenzae [6]; H. influenzae H128)	MIC (H. influenzae [6]; H. influenzae 511343)	MIC (H. influenzae [6]; H. influenzae 1302002H)	MIC (H. influenzae [6]; H. influenzae H128)	Reduction in bacterial burden compared with controls at baseline (S. pneumoniae [7]; 96 h)	Effect on bacterial burden (S. pneumoniae [7]; [12])	also measured
CC[C@H]1OC(=O)[C@H](C)[C@@H](O[C@H]2C[C@@](C)(OC)[C@@H](O)[C@H](C)O2)[C@H](C)[C@@H](O[C@@H]2O[C@H](C)C[C@H](N(C)C)[C@H]2O)[C@](C)(O)C[C@@H](C)CN(C)[C@H](C)[C@@H](O)[C@]1(C)O [AZM, azithromycin]	R	R	R	> 64 µg/mL	> 64 µg/mL	> 64 µg/mL	R	S	R	16 µg/mL (≈ 21.4 µM)	0.03 µg/mL (≈ 0.0401 µM)	4 µg/mL (≈ 5.34 µM)	S	S	S	4 µg/mL (≈ 5.34 µM)	2 µg/mL (≈ 2.67 µM)	0.5 µg/mL (≈ 0.668 µM)	did not demonstrate any reduction in bacterial burden	highly effective	Log10 reductions versus the levels at the baseline (H. influenzae [2]; recreated AZM 1,000-mg loading then 500-mg profile once daily, two of three H. influenzae isolates): 1.2 log10 CFU/lungs and 1.4 log10 CFU/lungs; Efficacy (H. influenzae [2]; recreated AZM 1,000/500-mg profile, H. influenzae isolate with AZM MIC of 4 mg/liter): ineffective; Efficacy (S. aureus [3]): ineffective; AUC0–t Human ([4]; 1,000/500 mg oral steady-state profile, 24 h interval): 4.9 µg·h/mL; Cmax Human ([4]; 1,000/500 mg oral steady-state profile): 500 ng/mL; Effect on bacterial burden (S. pneumoniae [7]; second AZM-resistant S. pneumoniae isolate, recreated AZM 1,000/500 mg profile, 96 h): no effect
CC(=O)NC[C@H]1CN(c2ccc(N3CCOCC3)c(F)c2)C(=O)O1 [LZD, linezolid]	S	S	S	4 µg/mL (≈ 11.9 µM)	2 µg/mL (≈ 5.93 µM)	1 µg/mL (≈ 2.96 µM)	–	–	–	–	–	–	–	–	–	–	–	–	–	–	AUC0–t Human ([4]; 625 mg oral steady state, 12 h interval): 147 µg·h/mL; AUC from 0 to 12 h postdosing ([4]; LZD 625 mg oral): 147 µg·h/mL; AUC from 0 to 12 h postdosing ([4]; LZD 600-mg approved oral dose): 138 µg·h/mL
Cc1nc(NNC(=O)[C@H](CC2CCCC2)CN(O)C=O)c(F)c(N2CCN3CCOC[C@@H]3C2)n1 [GSK1322322]	–	–	–	4 µg/mL (≈ 8.34 µM)	4 µg/mL (≈ 8.34 µM)	1 µg/mL (≈ 2.09 µM)	–	–	–	0.5 µg/mL (≈ 1.04 µM)	2 µg/mL (≈ 4.17 µM)	0.5 µg/mL (≈ 1.04 µM)	–	–	–	4 µg/mL (≈ 8.34 µM)	4 µg/mL (≈ 8.34 µM)	2 µg/mL (≈ 4.17 µM)	–	–	Blood and plasma concentrations compared [8]: similar; Blood and plasma concentrations compared [9]: similar; Ratio of the total drug epithelial lining fluid AUC to the free drug plasma AUC [10]: 3.5; Kp [11]: 3.3
Cc1onc(-c2ccccc2)c1C(=O)N[C@@H]1C(=O)N2[C@@H]1SC(C)(C)[C@@H]2C(=O)O [Oxacillin]	–	R	R	–	32 µg/mL (≈ 79.7 µM)	> 64 µg/mL	–	–	–	–	–	–	–	–	–	–	–	–	–	–	–
C[C@H]1COc2c(N3CCN(C)CC3)c(F)cc3c(=O)c(C(=O)O)cn1c23 [LVX, levofloxacin]	–	S	R	–	0.25 µg/mL (≈ 0.692 µM)	32 µg/mL (≈ 88.6 µM)	S	S	R	1 µg/mL (≈ 2.77 µM)	1 µg/mL (≈ 2.77 µM)	32 µg/mL (≈ 88.6 µM)	NS	S	S	4 µg/mL (≈ 11.1 µM)	0.06 µg/mL (≈ 0.166 µM)	0.016 µg/mL (≈ 0.0443 µM)	did not demonstrate any reduction in bacterial burden	highly effective	Log10 reductions versus the levels at the baseline (H. influenzae [2]; recreated 500-mg LVX profile once daily, two susceptible H. influenzae isolates): 4.2 log10 CFU/lungs and 4.5 log10 CFU/lungs; Efficacy (H. influenzae [2]; recreated 500-mg LVX profile, nonsusceptible H. influenzae strain): ineffective; AUC0–t Human ([4]; 500 mg single oral dose, 24 h interval): 40 µg·h/mL; Cmax Human ([4]; 500 mg single oral dose): 4300 ng/mL
